For series [1], the system named is Phosphodiesterase PDE4. Kind of series: In vitro profiling, functional assay. The class given is biochemical, human. As to conditions: 30 µM. Here is the method: (§1) Binding and functional assays of CGAs with the proteins known to be pharmacological targets related to the CVS, CNS, and GI functions were conducted. […] In the binding assay, we measured the radiation activity of the solution containing filtered proteins that bound to the tested compound or high-affinity ligand, while in the functional assays, we measured the reaction product. The ability of the test compound to interact with the tested targets was measured as the inhibition of ligand binding to the target or reaction product production (% inhibition).

For series [2], the target named is Adenosine A2A (Homo sapiens, UniProt P29274). Kind of series: In vitro profiling, binding assay. The protocol:
as §1

Series [3] addresses hERG potassium channel (Homo sapiens, UniProt Q12809). Kind of series: In vitro profiling, binding assay. The protocol:
as §1

The target in series [4] is T1, 5-HT1A (Homo sapiens, UniProt P08908).
T1 sequence (P08908 1-422): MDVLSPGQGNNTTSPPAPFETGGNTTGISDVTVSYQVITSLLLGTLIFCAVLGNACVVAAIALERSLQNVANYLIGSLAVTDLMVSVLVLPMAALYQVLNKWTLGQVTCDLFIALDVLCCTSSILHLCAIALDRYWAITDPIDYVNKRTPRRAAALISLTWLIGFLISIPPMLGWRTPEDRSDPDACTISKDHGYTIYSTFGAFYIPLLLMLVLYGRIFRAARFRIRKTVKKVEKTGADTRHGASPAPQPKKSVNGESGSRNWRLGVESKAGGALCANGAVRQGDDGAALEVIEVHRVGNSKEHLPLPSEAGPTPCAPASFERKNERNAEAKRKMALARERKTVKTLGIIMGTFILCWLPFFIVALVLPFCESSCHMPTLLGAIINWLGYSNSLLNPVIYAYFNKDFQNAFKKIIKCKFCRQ
Description: In vitro profiling, binding assay. The protocol: as §1

Series [5] has as its system isolated perfused guinea pig heart. Kind of series: Langendorff perfused heart assay. As to conditions: for % change in LV dP/dt max from pre-application / % change in LVPSP from pre-application: mean ± SD, n = 3. The protocol: After injection of heparin sodium (100 unit/body, AY Pharmaceuticals Co., Ltd.) into the jugular vein, the animals were exsanguinated. […] A stainless-steel cannula was inserted in the aorta, followed by attachment to the Langendorff apparatus (Physio-Tech Co., Ltd., Tokyo, Japan). The attached heart was perfused with KH solution at 37.0 ± 0.2 °C. Before use, the KH solution was aerated by a gas mixture (95%O2 + 5%CO2) for 30 min or longer. The perfusion pressure was maintained at 70 mmHg.
DMSO solutions at 1, 10, and 100 mM were diluted 1000-fold with the KH solution to make test solutions of 1, 10, and 100 μM, respectively. The test solutions were cumulatively applied at a flow rate of 20 mL/min for 10 min with each concentration.
An ECG signal was recorded using electrodes fixed on the ventricular apex (+), and a stainless-steel cannula was inserted in the aorta (−), and LVP was recorded from the balloon catheter placed in the left ventricle. The ECG signals were amplified with an amplifier (DAM50; World Precision Instruments, Inc.) and LVPs were monitored with a Pressure Monitor 4 (Living Systems Instrumentation). Both of the waveforms were recorded with computer software (1000 Hz; iox2 and ecgAUTO3; emka Technologies).
Before measurement, the in-balloon pressure was adjusted so that the diastolic blood pressure would be in the range of 0 to 10 mmHg. The cardiac parameters, such as HR, PR interval, QRS duration, QT interval, QTc interval (Fridericia’s formula: QTc = QT/RR^1/3), LVPSP, left-ventricular end diastolic pressure (LVEDP), and LV dP/dt max, were measured.
Data are expressed as mean (± SD). The measured % changes from the pre-application value were used for analyses. Williams test was carried out between the solvent-control and test compound. Student’s t-test was carried out between the solvent-control and positive-control. […] The data from the solvent control and drug groups were tested by F test for homogeneity of variance. F test was performed at the significance level of 5%. When the variances were homogeneous, Student’s t-test was subsequently performed. When the variances were nonhomogeneous, Welch t-test was selected.

The subject of series [6] is Calcium Channel L-Type, Phenylalkylamine. Description: In vitro profiling, binding assay. Further details: species or system rat. As to conditions: 30 µM. The protocol:
as §1

In series [7] the test system is Calcium Channel L-Type, Dihydropyridine. Kind of series: In vitro profiling, binding assay. As to conditions: 30 µM. Further details: species or system rat. The protocol:
as §1

Series [8] concerns GABAA. Kind of series: In vitro profiling, binding assay. As to conditions: 30 µM. Further details: species or system rat. The protocol:
as §1

The subject of series [9] is Sodium Channel. Kind of series: In vitro profiling, binding assay. Further details: species or system rat. As to conditions: 30 µM. Here is the method: as §1
Series [10] relates to Glutamate, NMDA. Kind of series: In vitro profiling, binding assay. Further details: species or system rat. As to conditions: 30 µM. The protocol: as §1
The subject of series [11] is Calcium Channel L-Type, Benzothiazepine. Kind of series: In vitro profiling, binding assay. Further details: species or system rat. As to conditions: 30 µM. The protocol:
as §1

In series [12] the test system is rat hippocampal slices. Description: Electrophysiological assay of hippocampal slices, epileptiform discharge (ED) recording. As to conditions: ± SEM. The protocol:
A hippocampal slice was placed on the multielectrode array (200 μm distant electrodes) to ensure the multi-electrode grid covered the major surface of the slice. […]
ED frequency (in Hz) was determined as follows: raw data were filtered with a Low Pass filter (Butterworth second order filter) set to 20 Hz. ED number was monitored on-line (epileptiform event amplitudes had to be higher than 15 μV to be counted; a dead time of 200 ms was applied for each epileptiform event detected). ED frequency was averaged using 30-s time intervals. Results are presented as mean frequency of ED for the last 2 min of each condition (± SEM).

Series [13] has as its target T2, Muscarinic M1 (Homo sapiens, UniProt P11229).
T2 sequence (P11229 1-460): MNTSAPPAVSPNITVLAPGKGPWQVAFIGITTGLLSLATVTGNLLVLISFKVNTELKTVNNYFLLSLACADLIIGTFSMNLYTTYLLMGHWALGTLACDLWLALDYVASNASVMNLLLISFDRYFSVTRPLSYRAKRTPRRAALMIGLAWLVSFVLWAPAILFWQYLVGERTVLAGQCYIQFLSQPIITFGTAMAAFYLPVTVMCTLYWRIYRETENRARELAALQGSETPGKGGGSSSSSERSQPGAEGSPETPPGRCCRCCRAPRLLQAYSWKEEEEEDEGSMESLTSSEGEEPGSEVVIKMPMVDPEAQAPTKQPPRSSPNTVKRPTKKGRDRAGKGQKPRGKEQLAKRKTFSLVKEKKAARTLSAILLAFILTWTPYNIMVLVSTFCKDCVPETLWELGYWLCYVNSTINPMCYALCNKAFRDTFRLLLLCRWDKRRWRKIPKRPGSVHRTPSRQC
Description: In vitro profiling, binding assay. Here is the method: as §1

In series [14] the target is 5-HT2A (Homo sapiens, UniProt P28223). Kind of series: In vitro profiling, binding assay. The protocol: as §1
5-HT2A, sequence (P28223 whole entry): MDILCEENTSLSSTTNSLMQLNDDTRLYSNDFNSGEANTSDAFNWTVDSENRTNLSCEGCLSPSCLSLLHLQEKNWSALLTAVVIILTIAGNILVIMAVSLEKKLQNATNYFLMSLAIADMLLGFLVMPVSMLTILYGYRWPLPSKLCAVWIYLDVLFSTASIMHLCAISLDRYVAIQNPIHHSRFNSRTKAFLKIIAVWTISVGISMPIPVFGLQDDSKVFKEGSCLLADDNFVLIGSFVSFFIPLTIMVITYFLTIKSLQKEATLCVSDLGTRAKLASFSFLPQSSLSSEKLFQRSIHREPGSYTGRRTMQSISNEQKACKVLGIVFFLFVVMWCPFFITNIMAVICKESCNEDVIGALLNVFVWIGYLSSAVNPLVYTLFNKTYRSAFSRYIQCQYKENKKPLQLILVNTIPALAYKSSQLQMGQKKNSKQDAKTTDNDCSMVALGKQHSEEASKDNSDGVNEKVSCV
Where [15] appears, read: 10 µM compound, co-exposure with 50 μM 4-AP.
Where [16] appears, read: 30 µM, Adenosine A2A, read-out: % Inhibition.
Setting [17] is: probe radioisotope-labeled high-affinity ligand (not named), 30 µM, Potassium Channel hERG, read-out: % Inhibition.
The mark [18] stands for this setting: 30 µM, 5-HT1A, read-out: % Inhibition.

Values joined by “and” are separate entries in the source; they are usually repeats but may differ in a detail not shown here. Equal values may be shown once. Read-outs that look alike come from different tables or passages of the source.

hERG potassium channel, sequence (Q12809 whole entry): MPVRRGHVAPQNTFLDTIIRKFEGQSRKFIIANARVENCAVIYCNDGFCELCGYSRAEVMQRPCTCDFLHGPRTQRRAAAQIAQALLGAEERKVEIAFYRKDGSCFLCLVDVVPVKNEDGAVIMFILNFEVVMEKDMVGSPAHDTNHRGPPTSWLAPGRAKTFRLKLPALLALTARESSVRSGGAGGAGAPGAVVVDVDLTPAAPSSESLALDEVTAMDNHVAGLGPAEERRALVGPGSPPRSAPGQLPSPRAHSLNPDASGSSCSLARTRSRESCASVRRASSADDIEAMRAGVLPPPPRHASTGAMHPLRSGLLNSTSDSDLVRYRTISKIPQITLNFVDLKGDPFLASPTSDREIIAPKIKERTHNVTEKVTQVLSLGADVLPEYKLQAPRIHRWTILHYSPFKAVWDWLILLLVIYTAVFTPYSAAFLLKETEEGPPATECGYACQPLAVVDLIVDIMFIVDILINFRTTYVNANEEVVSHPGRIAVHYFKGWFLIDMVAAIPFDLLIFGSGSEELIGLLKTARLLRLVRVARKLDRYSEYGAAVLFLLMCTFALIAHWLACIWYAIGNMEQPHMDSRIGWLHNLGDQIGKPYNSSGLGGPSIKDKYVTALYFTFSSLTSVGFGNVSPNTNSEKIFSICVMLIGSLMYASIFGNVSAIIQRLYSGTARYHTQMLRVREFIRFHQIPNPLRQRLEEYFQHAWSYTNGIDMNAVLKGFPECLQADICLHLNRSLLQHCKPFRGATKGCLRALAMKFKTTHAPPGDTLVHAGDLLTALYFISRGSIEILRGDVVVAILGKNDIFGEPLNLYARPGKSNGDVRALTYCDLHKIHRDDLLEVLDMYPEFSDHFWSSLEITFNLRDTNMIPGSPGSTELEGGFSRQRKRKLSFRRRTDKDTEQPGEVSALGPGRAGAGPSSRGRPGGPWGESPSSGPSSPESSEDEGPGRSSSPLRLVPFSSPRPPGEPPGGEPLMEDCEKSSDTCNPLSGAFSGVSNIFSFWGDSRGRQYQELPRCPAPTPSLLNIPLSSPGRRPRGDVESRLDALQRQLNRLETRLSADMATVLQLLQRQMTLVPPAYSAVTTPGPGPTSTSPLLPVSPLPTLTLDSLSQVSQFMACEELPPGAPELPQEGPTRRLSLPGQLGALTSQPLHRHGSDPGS
Adenosine A2A, sequence (P29274 whole entry): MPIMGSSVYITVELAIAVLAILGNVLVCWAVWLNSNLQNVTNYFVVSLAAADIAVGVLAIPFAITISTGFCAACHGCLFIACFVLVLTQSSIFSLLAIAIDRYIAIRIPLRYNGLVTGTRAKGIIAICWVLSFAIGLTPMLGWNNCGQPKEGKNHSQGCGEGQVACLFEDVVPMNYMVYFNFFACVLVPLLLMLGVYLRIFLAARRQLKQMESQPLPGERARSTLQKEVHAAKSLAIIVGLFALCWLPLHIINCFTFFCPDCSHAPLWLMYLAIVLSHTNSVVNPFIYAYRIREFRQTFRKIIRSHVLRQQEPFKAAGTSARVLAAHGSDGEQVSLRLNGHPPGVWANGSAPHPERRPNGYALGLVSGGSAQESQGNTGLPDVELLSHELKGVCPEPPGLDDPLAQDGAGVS

As for `COc1cc(/C=C/C(=O)O)ccc1O` [FA, ferulic acid], the % Inhibition (as a rule, the drop in the measured response relative to a control, in per cent) in [1] is reported as 7%; in series [6], 26%; in series [7], 1%; in series [8] it was 1%; in [9], 5%; in series [10], 16%. Besides, the “% Inhibition” value in series [11] turned out to be 6%. In addition, the inhibition (commonly the drop in the measured response relative to a control, in per cent) at 30 µM was -14% in series [2]; 7% in [3] (30 µM, Potassium Channel hERG, read-out: % Inhibition); 2% in [4]. For the same compound, the “Effect on LVP” value in series [5] (at 100 μM) is reported as “did not affect”. Moreover, the “Change in ECG parameters compared to solvent control” value in series [5] (until 100 µM) is given as “no significant change”. This compound also registered an ED rate in series [12] (setting [15]) of 0.41 ± 0.04 Hz.
For the compound `O=C(O)/C=C/c1ccc(O)c(O)c1` [CA, caffeic acid], the “% Inhibition” value amounted to 4% in series [1]; 4% in [2] (30 µM, Adenosine A2A); 9% in series [4] (30 µM, 5-HT1A); 21% in [6]; 7% in series [7]; 18% in series [8]. For the same compound, the “% Inhibition” value in [9] is given as 1%; in series [10], 5%; in [11], −3%. Besides, the inhibition at 30 µM is -19% in series [3], 5% in [13] and 7% in [14]. Also, the “% change in LV dP/dt max from pre-application” value in series [5] (10 μM) is on record as −6.5 ± 1.6%; in series [5] (100 μM), −8.8 ± 0.8%. The figures for the “% change in LVPSP from pre-application” value in [5] (10 μM) and in [5] (100 μM) were −4.3 ± 0.8% and −6.2 ± 0.9%, respectively. In addition, the ED rate was 0.55 ± 0.07 Hz in [12] (setting [15]) and 0.35 ± 0.03 Hz in [12] (follow-up test, 1 µM compound, co-exposure with 4-AP).
Turning to `COc1cc(/C=C/C(=O)O[C@H]2C[C@@](O)(C(=O)O)C[C@H](O)[C@@H]2O)ccc1O` [5-FQA, 5-O-feruloylquinic acid], the “% Inhibition” value in series [1] came out at 2%; in [6] it was 19%; in series [7], 6%; in series [8], 15%; in series [9], 10%; in series [10], 10%. Further, the “% Inhibition” value in [11] was found to be 6%. Also, the inhibition at 30 µM was 2% in series [2] (setting [16]); 6% in series [3] (setting [17]); 11% in [4] (setting [18]); -5% in series [13] (30 µM, Muscarinic M1, read-out: % Inhibition); 8% in [14]. The compound further had an ED rate in series [12] (setting [15]) of 0.46 ± 0.05 Hz.
Regarding `O=C(/C=C/c1ccc(O)c(O)c1)O[C@H]1C[C@@](O)(C(=O)O)C[C@H](O)[C@@H]1O` [5-CQA, 5-O-caffeoylquinic acid], the “% Inhibition” value in series [1] is −6%; in [6], 14%; in series [7] it was 1%; in series [8], 8%; in series [9] it was 19%; in series [10], 9%. In series [11], the “% Inhibition” value is −3%. The inhibition at 30 µM in series [2] (setting [16]) is -7%; in [3] (setting [17]) it was 3%; in series [4] (setting [18]), 12%; in [13], 0%; in series [14], 3%. The “% change in LV dP/dt max from pre-application” value in series [5] (100 μM) is −12.0 ± 6.2% and −12%. Further, in [5] (100 μM), the “% change in LVPSP from pre-application” value is −8.5 ± 6.2%. The same compound displayed an ED rate in [12] (setting [15]) of 0.38 ± 0.04 Hz.

(Values after PMC6789782, “Safety Pharmacological Evaluation of the Coffee Component, Caffeoylquinic Acid, and Its Metabolites, Using Ex Vivo and In Vitro Profiling Assays” (Pharmaceuticals, 2019).)
